Assay results from patent US11666558B2, “Methods of treating intraocular pressure with activators of Tie-2” (EyePoint Pharmaceuticals, Inc., priority 2015, dated 2023).
Several values for one entry are separate records, joined by “and”; a condition that tells them apart may be missing. Equal entries are not always repeated. Where two headings read alike, the source gives them in different places.

Assay: Ocular tissue concentrations (aqueous humor, vitreous humor, iris, retina, choroid, cornea) after topical ocular, subcutaneous and intravitreal administration
Assay type: in vivo, New Zealand White rabbits
Method: To measure the concentration of Compound 1 in plasma and ocular tissues following topical ocular, subcutaneous, and intravitreal administration, New Zealand White rabbits were administered Compound 1, and plasma and ocular samples were collected at pre-determined time points. Compound 1 formulations were prepared fresh on each day of dosing.
Ocular tissue samples from both eyes of each animal were collected and weights were recorded. Plasma and ocular tissue sample concentrations of Compound 1 were determined by LC-MS/MS.
New Zealand White rabbits weighing 2.5 to 3.5 kg were used on this study. Rabbits were housed one per cage. Animals were not fasted and only healthy animals with no ocular illness were used. Two rabbits per group were sacrificed at each of four ocular tissue sampling time points for a total of eight rabbits per group.
Animals were anesthetized for ocular (topical) and intravitreal dosing following the 12IA7 IACUC protocol. Each rabbit received a bolus dose of test formulation either via topical ocular administration 3 times daily on Days 1 and 2 (at 0, 6, and 12 hours), and once on Day 3 (at 0 hours) into both eyes; via intravitreal administration into both eyes once on Day 1 (at 0 hours); or via subcutaneous administration 2 times daily on Days 1 and 2 (at 0 and 8 hours) and once daily on Day 3 (at 0 hours). Doses were given within an approximately 1 hour window each day where applicable.
On Day 1, for intravitreal administration, or on Day 3, for topical ocular and subcutaneous administration, at the appropriate ocular tissue collection time points, animals were euthanized and both eyes were enucleated immediately. Following enucleation, each eye was rinsed with phosphate-buffered saline. Ocular tissue samples from both eyes of each animal were collected at predetermined time points and weights were recorded. All the samples were frozen immediately on dry ice, and stored at −60° C. to −80° C. pending bioanalysis.
An LC-MS/MS method was developed for the determination of Compound 1 in rabbit aqueous tissues (plasma, aqueous and vitreous humor) and solid ocular tissue samples. A pre-study standard curve was analyzed to determine the specificity, range, and lower limit of quantitation of the method. Plasma and tissue homogenate study samples were extracted and analyzed. All the samples were treated identically to the standards.
One eight-point standard curve was used in each analytical batch. To be accepted, each batch must have had at least five of eight standards with accuracy within ±20% of nominal, except at the lower limit of quantification (LLOQ), where ±25% was acceptable.
Concentration versus time data is plotted in FIGS. 3-16. All data are expressed as ng/g of the free drug. Samples that were below the limit of quantitation (0.2 ng/mL) were not used in the calculation of averages.

[1] = Group 3 subcutaneous 5 mg/kg, 0.5 hr
[2] = Group 3 subcutaneous 5 mg/kg, 1.0 hr
[3] = Group 3 subcutaneous 5 mg/kg, 2.0 hr
[4] = Group 3 subcutaneous 5 mg/kg, 4.0 hr
[5] = Group 5 intravitreal 2.5 mg per eye, 6.0 hr
[6] = Group 5 intravitreal 2.5 mg per eye, 24 hr
[7] = Group 5 intravitreal 2.5 mg per eye, 48 hr
[8] = Group 5 intravitreal 2.5 mg per eye, 72 hr

With `COC(=O)N[C@@H](Cc1ccccc1)C(=O)N[C@@H](Cc1ccc(NS(=O)(=O)O)cc1)c1csc(-c2cccs2)n1` [Compound 1 free acid] the “Average Peak Concentration, Vitreous Humor” value (Group 3 subcutaneous 5 mg/kg/dose, suspension) was 0.40 ng/g, the “aqueous humor Conc., individual eyes (OD, OS)” value [1] was “BLOQ (Below the limit of quantitation (0.2 ng/mL)) (2×) and 0.519 ng/mL and 1.90 ng/mL” and the “vitreous humor Conc., individual eyes (OD, OS)” value [1] was “BLOQ (Below the limit of quantitation (0.2 ng/mL)) and 0.261 ng/mL”. The “aqueous humor Conc., individual eyes (OD, OS)” value [2] was 0.485 ng/mL and 0.684 ng/mL and 0.229 ng/mL and 0.257 ng/mL, the “vitreous humor Conc., individual eyes (OD, OS)” value [2] was “BLOQ (Below the limit of quantitation (0.2 ng/mL))” and the “aqueous humor Conc., individual eyes (OD, OS)” value [3] was “BLOQ (Below the limit of quantitation (0.2 ng/mL)) and 0.594 ng/mL”. The “vitreous humor Conc., individual eyes (OD, OS)” value [3] was “BLOQ (Below the limit of quantitation (0.2 ng/mL))”, the “aqueous humor Conc., individual eyes (OD, OS)” value [4] was 0.229 ng/mL and BLOQ (Below the limit of quantitation (0.2 ng/mL)) and the “vitreous humor Conc., individual eyes (OD, OS)” value [4] was “BLOQ (Below the limit of quantitation (0.2 ng/mL))”. For the same compound, the “aqueous humor Conc., individual eyes (OD, OS)” value [5] was 34200 ng/mL and 15700 ng/mL and 23400 ng/mL and 32300 ng/mL, the “vitreous humor Conc., individual eyes (OD, OS)” value [5] was 592000 ng/mL and 625000 ng/mL and 432000 ng/mL and 270000 ng/mL and the “aqueous humor Conc., individual eyes (OD, OS)” value [6] was 3890 ng/mL and 6480 ng/mL and 5540 ng/mL and 1170 ng/mL. For the same compound, the “vitreous humor Conc., individual eyes (OD, OS)” value [6] was 528000 ng/mL and 491000 ng/mL and 320000 ng/mL, the “aqueous humor Conc., individual eyes (OD, OS)” value [7] was 476 ng/mL and 632 ng/mL and 1220 ng/mL and 1330 ng/mL and the “vitreous humor Conc., individual eyes (OD, OS)” value [7] was 75900 ng/mL and 148000 ng/mL and 68300 ng/mL and 99000 ng/mL. The “aqueous humor Conc., individual eyes (OD, OS)” value [8] was 145 ng/mL and 172 ng/mL and 94.1 ng/mL and 70.2 ng/mL, the “vitreous humor Conc., individual eyes (OD, OS)” value [8] was 96500 ng/mL and 101000 ng/mL and 16200 ng/mL and the concentration at 6 hr (New Zealand White, rabbit, aqueous humor, other: intravitreal, 2.5 mg per eye, Group 5 intravitreal 2.5 mg per eye, 6.0 hr, read-out: aqueous humor Average Conc.) was 26400 ng/g. The concentration at 24 hr (New Zealand White, rabbit, aqueous humor, other: intravitreal, 2.5 mg per eye, Group 5 intravitreal 2.5 mg per eye, 24 hr, read-out: aqueous humor Average Conc.) was 4270 ng/g, the concentration at 48 hr (New Zealand White, rabbit, aqueous humor, other: intravitreal, 2.5 mg per eye, Group 5 intravitreal 2.5 mg per eye, 48 hr, read-out: aqueous humor Average Conc.) was 915 ng/g and the concentration at 72 hr (New Zealand White, rabbit, aqueous humor, other: intravitreal, 2.5 mg per eye, Group 5 intravitreal 2.5 mg per eye, 72 hr, read-out: aqueous humor Average Conc.) was 120 ng/g. The concentration at 0.5 h (New Zealand White, rabbit, aqueous humor, subcutaneous, 5 mg/kg, Group 3 subcutaneous 5 mg/kg, 0.5 hr, read-out: aqueous humor Average Conc.) was 1.21 ng/g, the concentration at 1 h (New Zealand White, rabbit, aqueous humor, subcutaneous, 5 mg/kg, Group 3 subcutaneous 5 mg/kg, 1.0 hr, read-out: aqueous humor Average Conc.) was 0.41 ng/g and the concentration at 2 hr (New Zealand White, rabbit, aqueous humor, subcutaneous, 5 mg/kg, Group 3 subcutaneous 5 mg/kg, 2.0 hr, read-out: aqueous humor Average Conc.) was 0.66 ng/g. The concentration at 2 hr (New Zealand White, rabbit, aqueous humor, subcutaneous, 5 mg/kg, Group 3 subcutaneous 5 mg/kg, 2.0 hr, read-out: aqueous humor Conc., individual eyes (OD, OS)) was 0.601 ng/mL, the concentration at 4 hr (New Zealand White, rabbit, aqueous humor, subcutaneous, 5 mg/kg, Group 3 subcutaneous 5 mg/kg, 4.0 hr, read-out: aqueous humor Average Conc.) was 0.51 ng/g and the concentration at 4 hr (New Zealand White, rabbit, aqueous humor, subcutaneous, 5 mg/kg, Group 3 subcutaneous 5 mg/kg, 4.0 hr, read-out: aqueous humor Conc., individual eyes (OD, OS)) was 0.209 ng/mL. It also gave a concentration at 6 h (New Zealand White, rabbit, vitreous humor, other: intravitreal, 2.5 mg per eye, Group 5 intravitreal 2.5 mg per eye, 6.0 hr, read-out: vitreous humor Average Conc.) of 480000 ng/g, a concentration at 24 h (New Zealand White, rabbit, vitreous humor, other: intravitreal, 2.5 mg per eye, Group 5 intravitreal 2.5 mg per eye, 24 hr, read-out: vitreous humor Average Conc.) of 409000 ng/g and a concentration at 24 h (New Zealand White, rabbit, vitreous humor, other: intravitreal, 2.5 mg per eye, Group 5 intravitreal 2.5 mg per eye, 24 hr, read-out: vitreous humor Conc., individual eyes (OD, OS)) of 296000 ng/mL. It also gave a concentration at 48 h (New Zealand White, rabbit, vitreous humor, other: intravitreal, 2.5 mg per eye, Group 5 intravitreal 2.5 mg per eye, 48 hr, read-out: vitreous humor Average Conc.) of 97800 ng/g, a concentration at 72 h (New Zealand White, rabbit, vitreous humor, other: intravitreal, 2.5 mg per eye, Group 5 intravitreal 2.5 mg per eye, 72 hr, read-out: vitreous humor Average Conc.) of 65400 ng/g and a concentration at 0.5 hr (New Zealand White, rabbit, vitreous humor, subcutaneous, 5 mg/kg, Group 3 subcutaneous 5 mg/kg, 0.5 hr, read-out: vitreous humor Average Conc.) of 0.4 ng/g. It also gave a concentration at 0.5 hr (New Zealand White, rabbit, vitreous humor, subcutaneous, 5 mg/kg, Group 3 subcutaneous 5 mg/kg, 0.5 hr, read-out: vitreous humor Conc., individual eyes (OD, OS)) of 0.227 ng/mL, a concentration at 1 hr (New Zealand White, rabbit, vitreous humor, subcutaneous, 5 mg/kg, Group 3 subcutaneous 5 mg/kg, 1.0 hr, read-out: vitreous humor Average Conc.) of 0.41 ng/g and a concentration at 1 hr (New Zealand White, rabbit, vitreous humor, subcutaneous, 5 mg/kg, Group 3 subcutaneous 5 mg/kg, 1.0 hr, read-out: vitreous humor Conc., individual eyes (OD, OS)) of 0.407 ng/mL. It also gave a concentration at 4 hr (New Zealand White, rabbit, vitreous humor, subcutaneous, 5 mg/kg, Group 3 subcutaneous 5 mg/kg, 4.0 hr, read-out: vitreous humor Average Conc.) of 0.41 ng/g and a concentration at 4 hr (New Zealand White, rabbit, vitreous humor, subcutaneous, 5 mg/kg, Group 3 subcutaneous 5 mg/kg, 4.0 hr, read-out: vitreous humor Conc., individual eyes (OD, OS)) of 0.408 ng/mL.
